# Columns and labels:
# [1] = molecular target: T1, biotinylated wild-type menin and MLL-AF9 fusion protein (menin/MLL binding) (Homo sapiens, UniProt O00255); test: Assay 1: menin/MLL binding AlphaLISA assay, wild-type menin; conditions: Table 30; column head does not say wild-type or mutated menin
# T1 construct: made in house; host or cells: menin: E. coli; MLL-AF9-FLAG: HEK293 cells, used as cleared lysate
# T1 sequence (O00255 1-610): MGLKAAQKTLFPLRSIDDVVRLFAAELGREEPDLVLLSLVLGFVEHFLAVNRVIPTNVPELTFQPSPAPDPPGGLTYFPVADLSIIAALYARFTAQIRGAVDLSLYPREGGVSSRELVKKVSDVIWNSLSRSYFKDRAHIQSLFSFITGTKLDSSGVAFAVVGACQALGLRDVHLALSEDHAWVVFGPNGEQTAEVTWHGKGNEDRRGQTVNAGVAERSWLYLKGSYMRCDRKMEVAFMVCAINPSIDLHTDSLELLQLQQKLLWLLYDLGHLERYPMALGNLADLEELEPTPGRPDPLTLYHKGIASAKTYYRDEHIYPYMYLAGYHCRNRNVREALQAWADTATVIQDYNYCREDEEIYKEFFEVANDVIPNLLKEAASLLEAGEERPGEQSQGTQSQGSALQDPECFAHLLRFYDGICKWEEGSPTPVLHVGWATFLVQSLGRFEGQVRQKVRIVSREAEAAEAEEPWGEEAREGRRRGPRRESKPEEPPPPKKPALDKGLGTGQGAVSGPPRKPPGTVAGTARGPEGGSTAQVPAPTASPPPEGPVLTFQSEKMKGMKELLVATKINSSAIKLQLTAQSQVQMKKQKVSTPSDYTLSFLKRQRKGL
# How it was run: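 Compound was preincubated 30 min at room temperature with biotinylated menin (5 nM) and MLL-AF9-FLAG lysate from HEK293 cells, pH 7.4 buffer with 5% DMSO and DTT. Bead-based Alpha signal after 60 min with streptavidin donor and anti-FLAG acceptor beads; four-parameter logistic fit gave IC50.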
# [2] = tested on: human acute monocytic leukemia cell line MV-4-11; test: Assay 2: cell proliferation assay (ATP quantitation, CellTiter-Glo), MV-4-11; type: cell-based; conditions: MV-4-11 cells
# How it was run: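 MV-4-11 cells, 1.67×10^4 per well in medium with 10% FBS, were exposed to compound for 72 h at 37° C., 5% CO2; HL-60 cells served as toxicity control. Proliferation read as ATP content by CellTiter-Glo luminescence.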
compound,measurement,setting,value
"COc1ccc(CC(=O)N2CC3(C2)CN(c2ncncc2Oc2ccc(F)cc2-c2cncnc2C(C)C)C3)cn1 [Example 132, 1-(6-(5-(4-fluoro-2-(4-isopropylpyrimidin-5-yl)phenoxy)pyrimidin-4-yl)-2,6-diazaspiro[3.3]heptan-2-yl)-2-(6-methoxypyridin-3-yl)ethan-1-one]",IC50,[1],< 0.1 µM
same,EC50,"[2]; Homo sapiens, MV4-11, 72 h",0.1 to 1 µM
"CC(C)n1nccc1-c1cc(F)ccc1Oc1cncnc1N1CCC2(CCN(Cc3ccc4nn[nH]c4c3)C2)C1 (centres unmarked) [Example 198, 6-((7-(5-(4-fluoro-2-(1-isopropyl-1H-pyrazol-5-yl)phenoxy)pyrimidin-4-yl)-2,7-diazaspiro[4.4]nonan-2-yl)methyl)-1H-benzo[d][1,2,3] triazole]",IC50,[1],< 0.1 µM
same,EC50,"[2]; Homo sapiens, MV4-11, 72 h",< 0.1 µM
"CC(C)n1nccc1-c1cc(F)ccc1Oc1cncnc1N1CC2(CN(CC3CCCC(F)(F)C3)C2)C1 (centres unmarked) [Example 231, 2-((3,3-difluorocyclohexyl)methyl)-6-(5-(4-fluoro-2-(1-isopropyl-1H-pyrazol-5-yl)phenoxy)pyrimidin-4-yl)-2,6-diazaspiro[3.3] heptane]",IC50,[1],< 0.1 µM
same,EC50,"[2]; Homo sapiens, MV4-11, 72 h",0.1 to 1 µM
"CC(C)c1ncncc1-c1cc(F)ccc1Oc1cncnc1N1CC2(CC(N3CCc4cc(F)ccc4C3)CO2)C1 (centres unmarked) [Example 139, 2-(5-(4-fluoro-2-(4-isopropylpyrimidin-5-yl)phenoxy)pyrimidin-4-yl)-7-(6-fluoro-3,4-dihydroisoquinolin-2(1H)-yl)-5-oxa-2-azaspiro[3.4]octane]",IC50,[1],< 0.1 µM
same,EC50,"[2]; Homo sapiens, MV4-11, 72 h",0.1 to 1 µM
"NC(=O)c1ccc2c(CN3CCC4(CCN(c5ncncc5Oc5ccc(F)cc5OCC5CC5)C4)C3)c[nH]c2c1 (centres unmarked) [Example 200, 3-((7-(5-(2-(cyclopropylmethoxy)-4-fluorophenoxy)pyrimidin-4-yl)-2,7-diazaspiro[4.4]nonan-2-yl)methyl)-1H-indole-6-carboxamide]",IC50,[1],< 0.1 µM
same,EC50,"[2]; Homo sapiens, MV4-11, 72 h",0.1 to 1 µM
"CC(C)n1nc(C(F)(F)F)cc1-c1cc(F)ccc1Oc1cncnc1N1CC2(CN(CC3(O)CCCCC3)C2)C1 [Example 72, 1-((6-(5-(4-fluoro-2-(1-isopropyl-3-(trifluoromethyl)-1H-pyrazol-5-yl)phenoxy)pyrimidin-4-yl)-2,6-diazaspiro[3.3]heptan-2-yl)methyl)cyclohexan-1-ol]",IC50,[1],< 0.1 µM
same,EC50,"[2]; Homo sapiens, MV4-11, 72 h",0.1 to 1 µM
"CC(C)N(C)C(=O)c1cc(F)ccc1Oc1cncnc1N1CCC2(CCN(Cc3ccc4[nH]c(=O)[nH]c4c3)C2)C1 (centres unmarked) [Example 183, 5-fluoro-N-isopropyl-N-methyl-2-((4-(7-((2-oxo-2,3-dihydro-1H-benzo[d]imidazol-5-yl)methyl)-2,7-diazaspiro[4.4]nonan-2-yl)pyrimidin-5-yl)oxy)benzamide]",IC50,[1],< 0.1 µM
same,EC50,"[2]; Homo sapiens, MV4-11, 72 h",< 0.1 µM
"CC(C)N(C(=O)c1cc(F)ccc1Nc1cncnc1N1CCC2(CC1)CN(C1CCC(NS(C)(=O)=O)CC1)C2)C(C)C (single isomer, unassigned) [Example 248A, 5-fluoro-N,N-diisopropyl-2-((4-(2-(4-(methylsulfonamido)cyclohexyl)-2,7-diazaspiro[3.5]nonan-7-yl)pyrimidin-5-yl)amino) benzamide]",IC50,[1],< 0.1 µM
same,EC50,"[2]; Homo sapiens, MV4-11, 72 h",0.1 to 1 µM
"CC1(C)C(=O)Nc2cc(CN3CCC4(CCN(c5ncncc5Oc5ccc(F)cc5-c5cccnc5C5CC5)C4)C3)ccc21 (centres unmarked) [Example 179, 6-((7-(5-(2-(2-cyclopropylpyridin-3-yl)-4-fluorophenoxy)pyrimidin-4-yl)-2,7-diazaspiro[4.4]nonan-2-yl)methyl)-3,3-dimethylindolin-2-one]",IC50,[1],< 0.1 µM
same,EC50,"[2]; Homo sapiens, MV4-11, 72 h",< 0.1 µM
"CC(C)N(C(=O)c1cc(F)ccc1Oc1cncnc1N1CCC2(CC(N)C(Cc3ccc4[nH]c(=O)[nH]c4c3)C2)C1)C(C)C (single isomer, unassigned) [Example 25, 2-((4-(7-amino-8-((2-oxo-2,3-dihydro-1H-benzo[d]imidazol-5-yl)methyl)-2-azaspiro[4.4]nonan-2-yl)pyrimidin-5-yl)oxy)-5-fluoro-N,N-diisopropylbenzamide]",IC50,[1],< 0.1 µM
same,EC50,[2]; 72 h,≥ 1 µM
"CCN(C(=O)C(C)C)c1cc(F)ccc1Oc1cncnc1N1CC2(CN(CC3CCCCC3)C2)C1 [Example 106, N-(2-((4-(6-(cyclohexylmethyl)-2,6-diazaspiro[3.3]heptan-2-yl)pyrimidin-5-yl)oxy)-5-fluoro-phenyl)-N-ethylisobutyramide]",IC50,[1],< 0.1 µM
same,EC50,"[2]; Homo sapiens, MV4-11, 72 h",< 0.1 µM
"O=C(c1cc(F)ccc1Oc1cncnc1N1CCC2(CCN(Cc3ccc4[nH]c(=O)[nH]c4c3)C2)C1)N1CCOCC1 (centres unmarked) [Example 155, 5-((7-(5-(4-fluoro-2-(morpholine-4-carbonyl)phenoxy)pyrimidin-4-yl)-2,7-diaza-spiro[4.4]nonan-2-yl)methyl)-1,3-dihydro-2H-benzo[d]imidazol-2-one]",IC50,[1],< 0.1 µM
same,EC50,"[2]; Homo sapiens, MV4-11, 72 h",0.1 to 1 µM
"COc1cc(F)ccc1Oc1cncnc1N1CCC2(CCN(Cc3ccc4[nH]c(=O)[nH]c4c3)C2)C1 (centres unmarked) [Example 209, 5-((7-(5-(4-fluoro-2-methoxyphenoxy)pyrimidin-4-yl)-2,7-diazaspiro[4.4]nonan-2-yl)methyl)-1,3-dihydro-2H-benzo[d]imidazol-2-one]",IC50,[1],< 0.1 µM
same,EC50,"[2]; Homo sapiens, MV4-11, 72 h",0.1 to 1 µM
"CCN(C(=O)OC)c1cc(F)ccc1Oc1cncnc1N1CCC2(CCN(Cc3ccc4[nH]c(=O)[nH]c4c3)C2)C1 (centres unmarked) [Example 91, methyl ethyl(5-fluoro-2-((4-(7-((2-oxo-2,3-dihydro-1H-benzo[d]imidazol-5-yl)methyl)-2,7-diazaspiro [4.4]nonan-2-yl)pyrimidin-5-yl)oxy)phenyl) carbamate]",IC50,[1],< 0.1 µM
same,EC50,"[2]; Homo sapiens, MV4-11, 72 h",< 0.1 µM
"CC(C)c1ncncc1-c1cc(F)ccc1Oc1cncnc1N1CCC2(CCN(Cc3ccc4[nH]c(=O)[nH]c4c3)C2)C1 (single isomer, unassigned) [Example 160B, 5-((7-(5-(4-fluoro-2-(4-isopropylpyrimidin-5-yl)phenoxy)pyrimidin-4-yl)-2,7-diazaspiro[4.4]nonan-2-yl)methyl)-1,3-dihydro-2H-benzo[d]imidazol-2-one]",IC50,[1],< 0.1 µM
same,EC50,[2]; 72 h,< 0.1 µM
"NC1Cc2ccc(-c3cc(F)ccc3Oc3cncnc3N3CC4(CN(CC5CCOCC5)C4)C3)cc2C1 (centres unmarked) [Example 68, 5-(5-fluoro-2-((4-(6-((tetrahydro-2H-pyran-4-yl)methyl)-2,6-diazaspiro[3.3]heptan-2-yl)pyrimidin-5-yl)oxy)phenyl)-2,3-dihydro-1H-inden-2-amine]",IC50,[1],< 0.1 µM
same,EC50,"[2]; Homo sapiens, MV4-11, 72 h",≥ 1 µM
"CC(C)N(C)C(=O)c1cc(F)ccc1Oc1cncnc1N1CCC2(CCN(Cc3ccc(N4CCOC4=O)cc3)C2)C1 (centres unmarked) [Example 62, 5-fluoro-N-isopropyl-N-methyl-2-((4-(7-(4-(2-oxooxazolidin-3-yl)benzyl)-2,7-diazaspiro[4.4]nonan-2-yl)pyrimidin-5-yl)oxy)benzamide]",IC50,[1],< 0.1 µM
same,EC50,[2]; 72 h,0.1 to 1 µM
"CC1(C)C(=O)Nc2cc(CN3CCC4(CCN(c5ncncc5Oc5ccc(F)cc5OCC(F)(F)F)C4)C3)ccc21 (centres unmarked) [Example 182, 6-((7-(5-(4-fluoro-2-(2,2,2-trifluoroethoxy)phenoxy)pyrimidin-4-yl)-2,7-diazaspiro[4.4]nonan-2-yl)methyl)-3,3-dimethylindolin-2-one]",IC50,[1],< 0.1 µM
same,EC50,"[2]; Homo sapiens, MV4-11, 72 h",0.1 to 1 µM
"N#Cc1ccc(-c2cc(F)ccc2Oc2cncnc2N2CCC3(CCN(Cc4ccc5[nH]c(=O)[nH]c5c4)C3)C2)c(C2CC2)c1 (single isomer, unassigned) [Example 42A, 2-cyclopropyl-5′-fluoro-2′-((4-(7-((2-oxo-2,3-dihydro-1H-benzo[d]imidazol-5-yl)methyl)-2,7-diazaspiro[4.4]nonan-2-yl)pyrimidin-5-yl)oxy)-[1,1′-biphenyl]-4-carbonitrile]",IC50,[1],< 0.1 µM
same,EC50,"[2]; Homo sapiens, MV4-11, 72 h",< 0.1 µM
"O=c1[nH]c2ccc(CN3CCC4(CCN(c5ncncc5Oc5ccc(F)cc5-c5cccnc5C5CC5)C4)C3)cc2[nH]1 (centres unmarked) [Example 180, 5-((7-(5-(2-(2-cyclopropylpyridin-3-yl)-4-fluorophenoxy)pyrimidin-4-yl)-2,7-diazaspiro[4.4]nonan-2-yl)methyl)-1,3-dihydro-2H-benzo[d]imidazol-2-one]",IC50,[1],< 0.1 µM
same,EC50,"[2]; Homo sapiens, MV4-11, 72 h",< 0.1 µM
"CC(C)N(C(=O)c1cc(F)ccc1Oc1cncnc1N1CCC2(CCN(Cc3ccc4[nH]c(=O)[nH]c4c3)C2)C1)C(C)C (racemic) [Example 1, 5-fluoro-N,N-diisopropyl-2-((4-(7-((2-oxo-2,3-dihydro-1H-benzo[d]imidazol-5-yl)methyl)-2,7-diazaspiro[4.4]nonan-2-yl)pyrimidin-5-yl)oxy)benzamide]",IC50,[1],< 0.1 µM
same,EC50,"[2]; Homo sapiens, MV4-11, 72 h",< 0.1 µM
"CC(C)N(C(=O)c1cc(F)ccc1Oc1cncnc1N1CC2(CC(N(C)C3CCOCC3)C2)C1)C(C)C [Example 240, 5-fluoro-N,N-diisopropyl-2-((4-(6-(methyl(tetrahydro-2H-pyran-4-yl)amino)-2-azaspiro[3.3]heptan-2-yl)pyrimidin-5-yl)oxy)benzamide]",IC50,[1],< 0.1 µM
same,EC50,"[2]; Homo sapiens, MV4-11, 72 h",< 0.1 µM
